Data published in patent publication US12214092B2, “Systems and methods for treating biological fluids” (Cerus Corporation, priority 2017, dated 2025).

What was measured:
Assay type in all cases: cell-based
S. epidermidis = experiment: Amotosalen and UV light (265-385 nm LEDs) treatment of S. epidermidis in plasma, colony forming unit assay; conditions: 15 μM amotosalen, ~3 J/cm^2, plasma
Text: This system comprised single arrays facing (e.g., opposing) a platform positioned for the illumination of biological fluids placed on the platform (see e.g., FIG. 5). System controls provided for adjustment of the LEDs during treatment of the biological fluid samples, controlling both the timing and intensity of illumination by the LEDs to achieve a desired light UV light dose. Evaluation of photochemical conversion, photoproduct formation, pathogen inactivation, and plasma and/or platelet quality parameters are performed for each light source wavelength as described previously. In one study using the device, photochemical inactivation of various bacteria were tested for each of the above-referenced LEDs together with amotosalen. The bacteria included E. coli (Gram negative), S. epidermidis (Gram positive), and P. acnes (anaerobe). As there are known germicidal effects of ultraviolet light with wavelengths in the UVC and UVB range, the study was controlled to determine for each LED wavelength the total inactivation levels, as well as inactivation levels specifically resulting from the UV light (without added amotosalen) or the photochemical treatment process itself.

E. coli = experiment: Photochemical inactivation of E. coli in human plasma with amotosalen and UVA, colony forming unit assay; conditions: for E. coli Log Reduction: ~6.4 J/cm^2, n = 2
platelets = experiment: Platelet quality, platelets in 100% plasma: 75 μM amotosalen + 340 nm (~6.4 or ~7.2 J/cm^2) or 150 μM + INT-100 (~3.6 J/cm^2, with CAD); conditions: 340/~6.4

Cc1oc2c(C)c3oc(=O)cc(C)c3cc2c1COCCN [S-59, 3-(2-aminoethoxymethyl)-2,5,9-trimethylfuro[3,2-g]chromen-7-one]
Log reduction from S-59 (S. epidermidis; 265 nm): 0.89 log
Log reduction total (S. epidermidis; 265 nm): 5.23 log
Log reduction from S-59 (S. epidermidis; 280 nm): 1.56 log
Log reduction total (S. epidermidis; 280 nm): 5.02 log
Log reduction from S-59 (S. epidermidis; 310 nm): 6.68 log
Log reduction total (S. epidermidis; 310 nm): 7.19 log
Log reduction from S-59 (S. epidermidis; 325 nm): 7.17 log
Log reduction total (S. epidermidis; 325 nm): 7.18 log
Log reduction from S-59 (S. epidermidis; 340 nm): 7.18 log
Log reduction total (S. epidermidis; 340 nm): 7.28 log
Log reduction from S-59 (S. epidermidis; 365 nm): 7.32 log
Log reduction total (S. epidermidis; 365 nm): 7.26 log
Log reduction from S-59 (S. epidermidis; 385 nm): 1.85 log
Log reduction total (S. epidermidis; 385 nm): 1.76 log
Log reduction (E. coli; 340 nm, 1.5 μM, ~3 J/cm^2): 1.3 log
Post-UVA titer (E. coli; 340 nm, 1.5 μM, ~3 J/cm^2): 5.0 log cfu/mL
Pre-UVA titer (E. coli; 340 nm, 1.5 μM, ~3 J/cm^2): 6.3 log cfu/mL
Log reduction (E. coli; 340 nm, 1.5 μM, ~6 J/cm^2): 1.5 log
Post-UVA titer (E. coli; 340 nm, 1.5 μM, ~6 J/cm^2): 4.8 log cfu/mL
Pre-UVA titer (E. coli; 340 nm, 1.5 μM, ~6 J/cm^2): 6.3 log cfu/mL
Log reduction (E. coli; 340 nm, 1.5 μM, ~9 J/cm^2): 1.4 log
Post-UVA titer (E. coli; 340 nm, 1.5 μM, ~9 J/cm^2): 4.9 log cfu/mL
Pre-UVA titer (E. coli; 340 nm, 1.5 μM, ~9 J/cm^2): 6.3 log cfu/mL
Log reduction (E. coli; 340 nm, 15 μM, ~3 J/cm^2): 4.7 log
Post-UVA titer (E. coli; 340 nm, 15 μM, ~3 J/cm^2): 1.4 log cfu/mL
Pre-UVA titer (E. coli; 340 nm, 15 μM, ~3 J/cm^2): 6.1 log cfu/mL
Log reduction (E. coli; 340 nm, 15 μM, ~6 J/cm^2): 5.6 log
Post-UVA titer (E. coli; 340 nm, 15 μM, ~6 J/cm^2): 0.5 log cfu/mL
Pre-UVA titer (E. coli; 340 nm, 15 μM, ~6 J/cm^2): 6.1 log cfu/mL
Log reduction (E. coli; 340 nm, 15 μM, ~9 J/cm^2): 5.6 log
Post-UVA titer (E. coli; 340 nm, 15 μM, ~9 J/cm^2): 0.5 log cfu/mL
Pre-UVA titer (E. coli; 340 nm, 15 μM, ~9 J/cm^2): 6.1 log cfu/mL
Log reduction (E. coli; 340 nm, 150 μM, ~3 J/cm^2): >7.0 log
Post-UVA titer (E. coli; 340 nm, 150 μM, ~3 J/cm^2): <−0.7 log cfu/mL
Pre-UVA titer (E. coli; 340 nm, 150 μM, ~3 J/cm^2): 6.3 log cfu/mL
E. coli Log Reduction (E. coli; 340 nm, 220 mL plasma, 15 μM): 6.0 log
E. coli Log Reduction (E. coli; 340 nm, 350 mL plasma, 15 μM): 4.6 log
Log reduction (E. coli; INT-100, 15 μM, ~3 J/cm^2): 4.2 log
Post-UVA titer (E. coli; INT-100, 15 μM, ~3 J/cm^2): 2.0 log cfu/mL
Pre-UVA titer (E. coli; INT-100, 15 μM, ~3 J/cm^2): 6.2 log cfu/mL
Log reduction (E. coli; INT-100, 150 μM, ~3 J/cm^2): >7.1 log
Post-UVA titer (E. coli; INT-100, 150 μM, ~3 J/cm^2): <−0.7 log cfu/mL
Pre-UVA titer (E. coli; INT-100, 150 μM, ~3 J/cm^2): 6.4 log cfu/mL
E. coli Log Reduction (E. coli; INT-100, 220 mL plasma, 15 μM): 5.3 log
E. coli Log Reduction (E. coli; INT-100, 350 mL plasma, 15 μM): 4.4 log
Extent of Shape Change (ESC) (platelets; D5): 22.15
Hypotonic Shock Response (HSR) (platelets; D5): 56.50
Morphology (Kunicki score) (platelets; D5): 271.50
P-selectin (CD62P) (platelets; D5): 51.70
pCO2 (platelets; D5): 35.00 mmHg
pH @ 22° C. (platelets; D5): 7.15
pH @ 37° C. (platelets; D5): 6.92
pO2 (platelets; D5): 59.75 mmHg
Extent of Shape Change (ESC) (platelets; D7): 16.45
Hypotonic Shock Response (HSR) (platelets; D7): 45.98
Morphology (Kunicki score) (platelets; D7): 259.00
P-selectin (CD62P) (platelets; D7): 67.65
pCO2 (platelets; D7): 30.95 mmHg
pH @ 22° C. (platelets; D7): 6.95
pH @ 37° C. (platelets; D7): 6.72
pO2 (platelets; D7): 61.80 mmHg
pCO2 (platelets; Post-UVA): 43.60 mmHg
pH @ 22° C. (platelets; Post-UVA): 7.30
pH @ 37° C. (platelets; Post-UVA): 7.07
pO2 (platelets; Post-UVA): 42.90 mmHg
Extent of Shape Change (ESC) (platelets; Pre-UVA): 20.60
Hypotonic Shock Response (HSR) (platelets; Pre-UVA): 45.40
